Assay results: patent US11718624B2, “Solid state forms of substituted pyrazolopyrimidines and uses thereof” (KSQ Therapeutics, Inc., priority 2020, dated 2023)
Like-named read-outs stand apart in the source and are kept apart here.

Experiment: Mouse pharmacokinetic study, single oral dose, plasma
Assay type: in vivo, NOD/SCID mice
Details: single PO dose 300 mg/kg, plasma, 300 mg/kg
Procedure: Mouse pharmacokinetic (PK) studies were conducted using Crystalline Form A of 6-(4-cyclopropyl-6-methoxypyrimidin-5-yl)-1-(4-(1-isopropyl-4-(trifluoromethyl)-1H-imidazol-2-yl)benzyl)-1H-pyrazolo[3,4-d]pyrimidine, as disclosed herein, Crystalline Form 2 of a gentisic acid co-crystal of 6-(4-cyclopropyl-6-methoxypyrimidin-5-yl)-1-(4-(1-isopropyl-4-(trifluoromethyl)-1H-imidazol-2-yl)benzyl)-1H-pyrazolo[3,4-d]pyrimidine, as disclosed herein, and Crystalline Form 8 of a benzoic acid co-crystal of 6-(4-cyclopropyl-6-methoxypyrimidin-5-yl)-1-(4-(1-isopropyl-4-(trifluoromethyl)-1H-imidazol-2-yl)benzyl)-1H-pyrazolo[3,4-d]pyrimidine, as disclosed herein.
The PK studies consisted of single dose oral exposure studies, which were conducted in female NOD/SCID mice (approximately 6 to 8 weeks, and 20-30 g at the time of study) using a compound dose of 300 mg/kg and a dosing volume of 10 mL/kg. The mice were fasted overnight prior to dosing. Animals had free access to food and water post-dosing.
(§1) Blood was sampled serially from the dorsal metatarsal vein at pre-dose, 0.25, 0.5, 1, 2, 4, 8, 24, 48 (crystalline Form 2 only), and 72 hours (crystalline Form 2 only) post PO dosing. Approximately 0.03 mL blood was collected at each time point and centrifuged at 4000 G for 5 minutes at 4° C. to provide plasma. The plasma samples were then stored in a freezer at −75±15° C. prior to LC-MS/MS analysis.
(§2) Concentrations of each compound in the plasma samples were then analyzed using an LC-MS/MS method. WinNonlin (Phoenix™, version 6.1) or other similar software was used for PK calculations. The following PK parameters were calculated, whenever possible from the plasma concentration versus time data: Cmax, Tmax, T1/2, AUCinf, and AUClast. The PK data were described using descriptive statistics such as mean with standard deviation.
Mouse pharmacokinetic (PK) studies were conducted using Crystalline Form 8 of 6-(4-cyclopropyl-6-methoxypyrimidin-5-yl)-1-(4-(1-isopropyl-4-(trifluoromethyl)-1H-imidazol-2-yl)benzyl)-1H-pyrazolo[3,4-d]pyrimidine, as disclosed herein.
as §1, with “8,” for “8, 24, 48 (crystalline Form 2 only),”, “24” for “72”, “hours” for “hours (crystalline Form 2 only)”
as §2, with “of” for “of each”

[1] = female, NOD/SCID, mouse, po, Mouse 11
[2] = female, NOD/SCID, mouse, po, Mouse 12

| Cmax (Mean, female NOD/SCID mice) [ng/mL] | T1/2 (Mean, female NOD/SCID mice) [h] | Tmax (Mean, female NOD/SCID mice) [h] | AUClast (Mean, female NOD/SCID mice, sampling to 24 h (to 72 h for Form 2)) [µg·h/mL] | AUC(0-t) (female, NOD/SCID, mouse, po, Mouse 10) [µg·h/mL] | Cmax (female, NOD/SCID, mouse, po, Mouse 10, read-out: Cmax) [ng/mL] | Tmax (female, NOD/SCID, mouse, po, Mouse 10, read-out: Tmax) [h] | AUC(0-t) [1] [µg·h/mL] | half-life [1] [h] | Cmax (female, NOD/SCID, mouse, po, Mouse 11, read-out: Cmax) [ng/mL] | Tmax (female, NOD/SCID, mouse, po, Mouse 11, read-out: Tmax) [h] | AUC(0-t) [2] [µg·h/mL] | half-life [2] [h] | Cmax (female, NOD/SCID, mouse, po, Mouse 12, read-out: Cmax) [ng/mL] | Tmax (female, NOD/SCID, mouse, po, Mouse 12, read-out: Tmax) [h] | Tmax (Mouse 9) [h] | Tmax (female, NOD/SCID, mouse, po, Mouse 7, read-out: Tmax) [h] | half-life (female, NOD/SCID, mouse, po, Mouse 8) [h] | Compound |
| --- | --- | --- | --- | --- | --- | --- | --- | --- | --- | --- | --- | --- | --- | --- | --- | --- | --- | --- |
| 14770 | 6.8 | 3.50 | 182.045 | 145 | 8810 | 8 | 168 | 11.4 | 18200 | 0.5 | 233 | 2.08 | 17300 | 2 | – | – | – | COc1ncnc(C2CC2)c1-c1ncc2cnn(Cc3ccc(-c4nc(C(F)(F)F)cn4C(C)C)cc3)c2n1 [Crystalline Form 8, 6-(4-cyclopropyl-6-methoxypyrimidin-5-yl)-1-(4-(1-isopropyl-4-(trifluoromethyl)-1H-imidazol-2-yl)benzyl)-1H-pyrazolo[3,4-d]pyrimidine] |
| – | – | – | – | – | – | – | – | – | – | – | – | – | – | – | 4.00 | 8 | 6.79 | COc1ncnc(C2CC2)c1-c1ncc2cnn(Cc3ccc(-c4nc(C(F)(F)F)cn4C(C)C)cc3)c2n1 [Crystalline Form A, 6-(4-cyclopropyl-6-methoxypyrimidin-5-yl)-1-(4-(1-isopropyl-4-(trifluoromethyl)-1H-imidazol-2-yl)benzyl)-1H-pyrazolo[3,4-d]pyrimidine] |
